In US20250282794A1 (CURADEV PHARMA LTD, priority 2022, published 2025):

The compounds below were run against recombinant full length HPK-1 enzyme (Homo sapiens (Human), UniProt Q92918) (assay: HPK-1 biochemical enzyme assay (ADP-Glo kinase inhibition)). Conditions: recombinant full length HPK-1 6.8 nM, 10 μM ATP, 12.5 μM MBP, 30 mins at 25° C.
Chain of recombinant full length HPK-1 enzyme (Q92918 whole entry, species assumed): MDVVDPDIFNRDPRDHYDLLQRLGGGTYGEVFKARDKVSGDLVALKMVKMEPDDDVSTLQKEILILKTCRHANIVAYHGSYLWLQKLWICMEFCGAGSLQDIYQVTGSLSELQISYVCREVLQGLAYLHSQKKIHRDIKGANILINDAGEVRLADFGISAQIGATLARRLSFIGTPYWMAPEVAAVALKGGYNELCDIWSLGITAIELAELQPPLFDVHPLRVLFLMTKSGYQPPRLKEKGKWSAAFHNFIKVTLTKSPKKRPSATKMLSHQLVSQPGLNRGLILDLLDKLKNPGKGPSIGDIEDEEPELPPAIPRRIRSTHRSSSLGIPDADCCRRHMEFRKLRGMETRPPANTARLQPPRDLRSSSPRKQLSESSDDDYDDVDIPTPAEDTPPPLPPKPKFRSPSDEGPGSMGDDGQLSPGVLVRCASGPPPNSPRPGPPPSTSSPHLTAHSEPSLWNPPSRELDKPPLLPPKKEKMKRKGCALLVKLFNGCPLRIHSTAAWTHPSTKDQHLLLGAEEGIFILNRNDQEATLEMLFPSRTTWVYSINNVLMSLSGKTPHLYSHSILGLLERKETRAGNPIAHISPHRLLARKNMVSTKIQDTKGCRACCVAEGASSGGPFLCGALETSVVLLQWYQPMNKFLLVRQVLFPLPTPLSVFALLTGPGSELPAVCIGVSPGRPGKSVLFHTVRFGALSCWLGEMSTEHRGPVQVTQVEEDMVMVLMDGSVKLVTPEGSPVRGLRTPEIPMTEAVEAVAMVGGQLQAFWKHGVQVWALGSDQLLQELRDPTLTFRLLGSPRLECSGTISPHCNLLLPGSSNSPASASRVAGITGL
Method in brief: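 Recombinant full-length human HPK-1 (6.8 nM) incubated 30 min at 25° C. with 10 μM ATP and 12.5 μM swine MBP in 40 mM Tris pH 7.4, 20 mM MgCl2, 50 μM DTT, 0.1 mg/mL BSA. ADP measured by ADP-Glo; IC50 from 10 concentrations, normalized to no-enzyme and vehicle controls.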
For `Cc1c(Nc2cc[nH]c(=O)c2C(=O)Nc2ccc(N3CCN(C)CC3)c(Br)c2)cnc2c1NCCO2` [Example 270, N-(3-bromo-4-(4-methylpiperazin-1-yl)phenyl)-4-((8-methyl-2,3-dihydro-1H-pyrido[2,3-b][1,4]oxazin-7-yl)amino)-2-oxo-1,2-dihydropyridine-3-carboxamide], the IC50 was at most 10 nM.
Work on `Cc1c(Nc2cc[nH]c(=O)c2C(=O)Nc2ccc(-c3ccnn3C(C)C)cc2)cnc2c1NCCO2` [Example 271, N-(4-(1-isopropyl-1H-pyrazol-5-yl)phenyl)-4-((8-methyl-2,3-dihydro-1H-pyrido[2,3-b][1,4]oxazin-7-yl)amino)-2-oxo-1,2-dihydropyridine-3-carboxamide] yielded an IC50 of 10 to 100 nM.
Compound `Cc1c(Nc2cc[nH]c(=O)c2C(=O)Nc2ccc(N3CCN(C)C(=O)C3)cc2)cnc2c1NCCO2` [Example 272, 4-((8-methyl-2,3-dihydro-1H-pyrido[2,3-b][1,4]oxazin-7-yl)amino)-N-(4-(4-methyl-3-oxopiperazin-1-yl)phenyl)-2-oxo-1,2-dihydropyridine-3-carboxamide] has an IC50 of 10 to 100 nM.
With `Cc1c(Nc2cc[nH]c(=O)c2C(=O)Nc2ccc3ncc(O)nc3c2)cnc2c1NCCO2` [Example 273, N-(3-hydroxyquinoxalin-6-yl)-4-((8-methyl-2,3-dihydro-1H-pyrido[2,3-b][1,4]oxazin-7-yl)amino)-2-oxo-1,2-dihydropyridine-3-carboxamide] the IC50 was 100 to 1000 nM.
For `Cc1c(Nc2cc[nH]c(=O)c2C(=O)Nc2ccc(N3CCC(N4CCN(C)CC4)CC3)cc2)cnc2c1NCCO2` [Example 274, 4-((8-methyl-2,3-dihydro-1H-pyrido[2,3-b][1,4]oxazin-7-yl)amino)-N-(4-(4-(4-methylpiperazin-1-yl)piperidin-1-yl)phenyl)-2-oxo-1,2-dihydropyridine-3-carboxamide], the IC50 was at most 10 nM.
For `COCCN1CCC(c2ccc(NC(=O)c3c(Nc4cnc5c(c4C)NCCO5)cc[nH]c3=O)cc2F)CC1` [Example 276, N-(3-fluoro-4-(1-(2-methoxyethyl)piperidin-4-yl)phenyl)-4-((8-methyl-2,3-dihydro-1H-pyrido[2,3-b][1,4]oxazin-7-yl)amino)-2-oxo-1,2-dihydropyridine-3-carboxamide], the IC50 was at most 10 nM.
Work on `Cc1c(Nc2cc[nH]c(=O)c2C(=O)Nc2ccc(N3CCC(C)CC3)cc2)cnc2c1NCCO2` [Example 280, 4-((8-methyl-2,3-dihydro-1H-pyrido[2,3-b][1,4]oxazin-7-yl)amino)-N-(4-(4-methylpiperidin-1-yl)phenyl)-2-oxo-1,2-dihydropyridine-3-carboxamide] yielded an IC50 of 10 to 100 nM.
`CCCCC(CC)CNC(=O)c1ccc(NC(=O)c2c(Nc3cnc4c(c3C)NCCO4)cc[nH]c2=O)cc1` (centres unmarked) [Example 281, N-(4-((2-ethylhexyl)carbamoyl)phenyl)-4-((8-methyl-2,3-dihydro-1H-pyrido[2,3-b][1,4]oxazin-7-yl)amino)-2-oxo-1,2-dihydropyridine-3-carboxamide] gave an IC50 of 10 to 100 nM.
`Cc1c(Nc2cc[nH]c(=O)c2C(=O)Nc2ccc(N3CCN(CC(C)(C)O)CC3)cc2)cnc2c1NCCO2` [Example 282, N-(4-(4-(2-hydroxy-2-methylpropyl)piperazin-1-yl)phenyl)-4-((8-methyl-2,3-dihydro-1H-pyrido[2,3-b][1,4]oxazin-7-yl)amino)-2-oxo-1,2-dihydropyridine-3-carboxamide] showed an IC50 of at most 10 nM.
`Cc1c(Nc2cc[nH]c(=O)c2C(=O)Nc2ccc(N3CCN(C(=O)C4CCCC4)CC3)cc2)cnc2c1NCCO2` [Example 283, N-(4-(4-(cyclopentanecarbonyl)piperazin-1-yl)phenyl)-4-((8-methyl-2,3-dihydro-1H-pyrido[2,3-b][1,4]oxazin-7-yl)amino)-2-oxo-1,2-dihydropyridine-3-carboxamide] showed an IC50 of at most 10 nM.
With `COCC(=O)N1CCN(c2ccc(NC(=O)c3c(Nc4cnc5c(c4C)NCCO5)cc[nH]c3=O)cc2)CC1` [Example 284, N-(4-(4-(2-methoxyacetyl)piperazin-1-yl)phenyl)-4-((8-methyl-2,3-dihydro-1H-pyrido[2,3-b][1,4]oxazin-7-yl)amino)-2-oxo-1,2-dihydropyridine-3-carboxamide] the IC50 was at most 10 nM.
In the case of `COCCC(=O)N1CCN(c2ccc(NC(=O)c3c(Nc4cnc5c(c4C)NCCO5)cc[nH]c3=O)cc2)CC1` [Example 285, N-(4-(4-(3-methoxypropanoyl)piperazin-1-yl)phenyl)-4-((8-methyl-2,3-dihydro-1H-pyrido[2,3-b][1,4]oxazin-7-yl)amino)-2-oxo-1,2-dihydropyridine-3-carboxamide], the IC50 is reported as at most 10 nM.
`Cc1c(Nc2cc[nH]c(=O)c2C(=O)Nc2ccc(N3CCN(c4cccnc4)CC3)cc2)cnc2c1NCCO2` [Example 286, 4-((8-methyl-2,3-dihydro-1H-pyrido[2,3-b][1,4]oxazin-7-yl)amino)-2-oxo-N-(4-(4-(pyridin-3-yl)piperazin-1-yl)phenyl)-1,2-dihydropyridine-3-carboxamide] gave an IC50 of at most 10 nM.
`CNC(=O)N1CCN(c2ccc(NC(=O)c3c(Nc4cnc5c(c4C)NCCO5)cc[nH]c3=O)cc2)CC1` [Example 287, N-methyl-4-(4-(4-((8-methyl-2,3-dihydro-1H-pyrido[2,3-b][1,4]oxazin-7-yl)amino)-2-oxo-1,2-dihydropyridine-3-carboxamido)phenyl)piperazine-1-carboxamide] was tested, and the IC50 was 10 to 100 nM.
`Cc1c(Nc2cc[nH]c(=O)c2C(=O)Nc2ccc(N3CCN(c4ccncc4)CC3)cc2)cnc2c1NCCO2` [Example 288, 4-((8-methyl-2,3-dihydro-1H-pyrido[2,3-b][1,4]oxazin-7-yl)amino)-2-oxo-N-(4-(4-(pyridin-4-yl)piperazin-1-yl)phenyl)-1,2-dihydropyridine-3-carboxamide] showed an IC50 of at most 10 nM.
`COCCN(C)C(=O)N1CCN(c2ccc(NC(=O)c3c(Nc4cnc5c(c4C)NCCO5)cc[nH]c3=O)cc2)CC1` [Example 290, N-(2-methoxyethyl)-N-methyl-4-(4-(4-((8-methyl-2,3-dihydro-1H-pyrido[2,3-b][1,4]oxazin-7-yl)amino)-2-oxo-1,2-dihydropyridine-3-carboxamido)phenyl)piperazine-1-carboxamide] was tested, and the IC50 was at most 10 nM.
Compound `Cc1c(Nc2cc[nH]c(=O)c2C(=O)Nc2ccc(N3CCN(C)CC3)c(N(C)C)c2)cnc2c1NCCO2` [Example 291, N-(3-(dimethylamino)-4-(4-methylpiperazin-1-yl)phenyl)-4-((8-methyl-2,3-dihydro-1H-pyrido[2,3-b][1,4]oxazin-7-yl)amino)-2-oxo-1,2-dihydropyridine-3-carboxamide] has an IC50 of 10 to 100 nM.
`Cc1c(Nc2cc[nH]c(=O)c2C(=O)Nc2ccc(N3CCN(C4CCN(C)CC4)CC3)cc2)cnc2c1NCCO2` [Example 292, 4-((8-methyl-2,3-dihydro-1H-pyrido[2,3-b][1,4]oxazin-7-yl)amino)-N-(4-(4-(1-methylpiperidin-4-yl)piperazin-1-yl)phenyl)-2-oxo-1,2-dihydropyridine-3-carboxamide] was tested, and the IC50 was at most 10 nM.
For `Cc1c(Nc2cc[nH]c(=O)c2C(=O)Nc2ccc(N3CCN(C(=O)[C@@H]4C[C@@H]4F)CC3)cc2)cnc2c1NCCO2` [Example 293, N-(4-(4-((1S,2S)-2-fluorocyclopropane-1-carbonyl)piperazin-1-yl)phenyl)-4-((8-methyl-2,3-dihydro-1H-pyrido[2,3-b][1,4]oxazin-7-yl)amino)-2-oxo-1,2-dihydropyridine-3-carboxamide], the IC50 was at most 10 nM.
In the case of `Cc1c(Nc2cc[nH]c(=O)c2C(=O)Nc2ccc(N3CCN(C)CC3)c(N)c2)cnc2c1NCC(C)O2` (centres unmarked) [Example 294, N-(3-amino-4-(4-methylpiperazin-1-yl)phenyl)-4-((3,8-dimethyl-2,3-dihydro-1H-pyrido[2,3-b][1,4]oxazin-7-yl)amino)-2-oxo-1,2-dihydropyridine-3-carboxamide], the IC50 is reported as at most 10 nM.
In the case of `CNc1cc(NC(=O)c2c(Nc3cnc4c(c3C)NCCO4)cc[nH]c2=O)ccc1N1CCN(C)CC1` [Example 295, 4-((8-methyl-2,3-dihydro-1H-pyrido[2,3-b][1,4]oxazin-7-yl)amino)-N-(3-(methylamino)-4-(4-methylpiperazin-1-yl)phenyl)-2-oxo-1,2-dihydropyridine-3-carboxamide], the IC50 is reported as 10 to 100 nM.
`Cc1c(Nc2cc[nH]c(=O)c2C(=O)Nc2ccc3nc(NC(=O)[C@@H]4C[C@@H]4F)sc3c2)cnc2c1NCCO2` [Example 296, N-(2-((1S,2S)-2-fluorocyclopropane-1-carboxamido)benzo[d]thiazol-6-yl)-4-((8-methyl-2,3-dihydro-1H-pyrido[2,3-b][1,4]oxazin-7-yl)amino)-2-oxo-1,2-dihydropyridine-3-carboxamide] showed an IC50 of 100 to 1000 nM.
With `Cc1c(Nc2cc[nH]c(=O)c2C(=O)Nc2ccc3sc(NC(=O)[C@@H]4C[C@@H]4F)nc3c2)cnc2c1NCCO2` [Example 297, N-(2-((1S,2S)-2-fluorocyclopropane-1-carboxamido)benzo[d]thiazol-5-yl)-4-((8-methyl-2,3-dihydro-1H-pyrido[2,3-b][1,4]oxazin-7-yl)amino)-2-oxo-1,2-dihydropyridine-3-carboxamide] the IC50 was 100 to 1000 nM.
Work on `Cc1c(Nc2cc[nH]c(=O)c2C(=O)Nc2ccc(N3CCN(CC(=O)N(C)C)CC3)cc2)cnc2c1NCCO2` [Example 298, N-(4-(4-(2-(dimethylamino)-2-oxoethyl)piperazin-1-yl)phenyl)-4-((8-methyl-2,3-dihydro-1H-pyrido[2,3-b][1,4]oxazin-7-yl)amino)-2-oxo-1,2-dihydropyridine-3-carboxamide] yielded an IC50 of at most 10 nM.
For `CN1CCN(c2ccc(NC(=O)c3c(Nc4cnc5c(c4C#N)NCCO5)cc[nH]c3=O)cc2)CC1` [Example 299, 4-((8-cyano-2,3-dihydro-1H-pyrido[2,3-b][1,4]oxazin-7-yl)amino)-N-(4-(4-methylpiperazin-1-yl)phenyl)-2-oxo-1,2-dihydropyridine-3-carboxamide], the IC50 was 10 to 100 nM.
In the case of `Cc1c(Nc2cc[nH]c(=O)c2C(=O)Nc2ccc(N3CCC(C(C)(C)O)CC3)cc2)cnc2c1NCCO2` [Example 300, N-(4-(4-(2-hydroxypropan-2-yl)piperidin-1-yl)phenyl)-4-((8-methyl-2,3-dihydro-1H-pyrido[2,3-b][1,4]oxazin-7-yl)amino)-2-oxo-1,2-dihydropyridine-3-carboxamide], the IC50 is reported as at most 10 nM.
